Data from a melting point compilation (Tetko et al.; mined from patent text by program, amines drawn as free bases though some values may be those of a salt).

| melting point [°C] | Structure (SMILES) |
| --- | --- |
| 156 to 158 | OCC1(c2ccc(Cl)cc2)CCN(CCC(c2ccccc2)(c2ccccc2)c2ccccc2)CC1 |
| 191 to 200 | COc1cc(C)nc(NC(=O)NS(=O)(=O)c2cccc3c2S(=O)(=O)C(C)(C)S3(=O)=O)n1 |
| 169 to 170 | COc1ccc(C2=NN(C3CCN(C(=O)CS(C)(=O)=O)CC3)C(=O)[C@@H]3CC=CC[C@H]23)cc1OC |
| 245 to 247 | Oc1ccc(Nc2nncc3ccccc23)cc1 |
| 144 to 145 | CC(C)c1ccc(CCC(O)CC2CCCCC2)cc1NC(=O)CC1c2ccccc2Oc2ccccc21 (configuration not stated) |
| 226 to 227 | CS(=O)c1cc2n(c1C(=O)c1ccc(Br)cc1)CCC2C(=O)O (configuration not stated) |
| 125 to 128 | CONC(=N)c1ccc(-c2cc3ncn([C@H](C)[C@](O)(Cn4cncn4)c4ccc(F)cc4F)c(=O)c3s2)cc1 |
| 49.5 to 50 | Cc1ccc(S(=O)(=O)OCC(C)O)cc1 (racemic) |
| 215 to 245 | N#Cc1ccc2c(c1)C1(c3ccccc3-2)c2ccccc2-c2ccc(C#N)cc21 |
| 271 to 274 | CCc1cc(=O)c2c([nH]1)CCCN2C(=O)C(F)(F)F |
| 114 to 116 | CCOC(=O)c1cc2cc([N+](=O)[O-])cc(CC)c2o1 |
| 278 to 280 | Cc1nc2ccccn2c1C1=NNC(=O)CO1 |
| 271 to 272 | O=C1c2c(c(=O)n3nc(-c4ccccc4)cc3n2Cc2ccccc2)CN1c1ccccc1 |
| 99 to 101 | CCCCCCCCCCCCCc1nc(NC(=O)Nc2c(C(C)C)cccc2C(C)C)no1 |
| 256 | Cc1cc(-c2ccc(Cl)cc2)nc(-n2cnc(-c3ncc(S(N)(=O)=O)s3)c2)n1 |
| 185 to 188 | CC(=O)N1CCN(c2ccc(-c3cnc4[nH]cc(C(=O)N[C@@H](C(=O)N5CC(C#N)C5)C5CC5)c4n3)cc2)CC1 |
| 170 to 172 | CN1CCCCc2cc(Nc3ncc(Cl)c(Nc4ccccc4NS(C)(=O)=O)n3)ccc21 |
| 82 to 83 | O=C1C(Cl)=C(c2ccccc2)C(=O)N1c1ccccc1 |

| melting point [°C] | Structure (SMILES) |
| --- | --- |
| 140 to 141 | CCCNc1nc(N)nc(C)c1/C=C/C(C)(C)c1ccc(C(F)(F)F)cc1 |
| 83 to 84 | COC(=O)C1COc2ccc(S)cc2C1 (configuration not stated) |
| 178 | CN(C)C(=O)CCC(=O)NC1CCC(CCN2CCN(c3nccc4c3OCC4)CC2)CC1 (configuration not stated) |
| 185 to 187 | COc1cc(CN2CCN(C)CC2C2=NCCN2)cc(OC)c1OC (configuration not stated) |
| 166 to 168 | Oc1cccc(CCc2nc(-c3ccccc3)c(-c3ccccc3)s2)c1 |
| 116 to 117 | CC(C)(NC=O)c1ccc(C(F)(F)C(F)(F)c2ccccc2)cc1 |
| 262 | CCOC(=O)CC[C@H](NC(=O)c1ccc(NCc2cnc3nc(N)nc(N)c3c2)cc1)C(=O)OCC |
| 112 to 117 | OC1(c2cccn2Cc2ccccc2F)CCN(Cc2ccccc2)CC1 |
| 258 | Cc1c(C(=O)O)cnn1-c1nc(-c2cccc(Cl)c2)cs1 |
| 111 to 112 | CC(C)C(NC(=O)[C@@H]1CCCN1C(=O)[C@@H](NC(=O)c1ccc(C(=O)N2CCOCC2)nc1)C(C)C)C(=O)C(F)(F)C(F)(F)F (some centres not stated) |
| 189 to 190 | CC1CC(=O)NN=C1c1ccc(NC(=O)C2(Cl)CC2)cc1 (configuration not stated) |
| 123 to 124 | CCCCCCCCc1ccc(S(=O)(=O)Nc2nncs2)cc1 |
| 99 to 101 | CON=Cc1[nH]ccc1S(=O)(=O)NC(C)(C)C |
| 153 to 155 | CCCN(C(=O)COc1c(C)cccc1C)C1CCc2c(ccc(O)c2O)C1 (configuration not stated) |
| 343 to 345 | Cn1cc(-c2cc3cccnc3[nH]2)c2ccc(C(=O)Nc3nc[nH]n3)cc21 |
| 202 | O=C(Nc1cscc1S(=O)(=O)c1ccc(Cl)cc1)N[C@@H](Cc1ccc(NC(=O)c2c(Cl)cccc2Cl)cc1)C(=O)O |
| 144 to 145 | C=C(OCC)c1nc(-c2ccco2)c2ncn(Cc3ccc(OC)cc3)c2n1 |
| 152 to 153 | O=C(O)c1cn(Cc2ccc(OCc3ccccc3)cc2)nc1-c1ccccc1 |

| Structure (SMILES) | melting point [°C] |
| --- | --- |
| [N-]=[N+]=Nc1nc(N)nc2nc[nH]c12 | > 260 |
